Reference: PMC5825103 (PLoS ONE, 2018)

Tests used:
[1] = target: T1, MR-LBD binding to co-activator peptides (Homo sapiens, UniProt P08235, C808S); assay: co-factor peptide recruitment by surface plasmon resonance; conditions: 50 μM compound, relative to dexamethasone, seven peptides
T1 construct: MR-LBD (amino acids 712–984) with the mutations C808S; 6-HN tag (thrombin cleavable) (N); made in house
T1 sequence (P08235 712-984 C808S): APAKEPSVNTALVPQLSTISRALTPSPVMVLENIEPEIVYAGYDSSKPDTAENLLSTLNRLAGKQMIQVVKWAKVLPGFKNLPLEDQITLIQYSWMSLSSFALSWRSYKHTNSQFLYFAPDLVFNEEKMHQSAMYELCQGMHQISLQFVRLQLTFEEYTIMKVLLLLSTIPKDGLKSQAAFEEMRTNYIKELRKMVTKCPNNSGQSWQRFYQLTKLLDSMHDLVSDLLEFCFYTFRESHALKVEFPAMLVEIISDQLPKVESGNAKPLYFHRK
Method: Co-activator recruitment of MR was determined using surface plasmon resonance (SPR) biosensor (Biacore 3000, GE Healthcare) by probing the level of receptor binding to seven surface-immobilized co-activator peptides. All peptides carried an N-terminal biotin for surface-immobilisation, the following peptides and sequences were used:
Prior to the SPR measurements, excess dexamethasone was removed by gel filtration via a passage through a PD10 column (GE Healthcare) equilibrated in SPR running buffer (10 mM HEPES, 50 mM NaCl, 0,005% P20, pH 7.6). […] The surface was prepared through immobilization of the biotinylated peptides on a streptavidin chip (GE Healthcare) to levels of 1000±300 RU. The binding level at equilibrium was monitored for all samples including the reference sample that contained remaining traces of dexamethasone. All data was normalized to this reference sample in order to quantify the effects on peptide binding without bias by receptor instability. The surface was regenerated with 0.5% (w/v) SDS after each injection.

[2] = tested on: uni-nephrectomised db/db mice; assay: organ protection in db/db uni-nephrectomised mice; type: in vivo
Method: Obese diabetic male db/db mice (BKS.Cg-Dock7^m +/+ Lepr^db/J homozygotes) and their littermate male db/m mice were obtained from the Jackson Laboratory (Bar Harbor, ME, USA). […] Mice were subjected to right uninephrectomy at 8 weeks of age to hasten the development of diabetic nephropathy as described previously [43]. Db/m mice that received a uninephrectomy at 8 weeks of age served as the operation control. […] All surgery was performed under isoflurane anesthesia, and all efforts were made to minimize suffering.
The blood glucose level and glycosylated hemoglobin (HbA1C) levels were monitored in tail blood samples using a blood glucose meter (Glucometer Elite XL, Bayer Healthcare, Elkhart, IN, USA) and the DC 2000+ HbA1C kit (Bayer Healthcare), respectively, before treatment and at the time of sacrifice. Twenty-four-hour urine was obtained from each mouse after placement in metabolic cages before treatment and at the time of sacrifice. Urine albumin was measured using the DC2000+ microalbumin reagent kit (Bayer Healthcare).
Mice were sacrificed under isoflurane anesthesia. Blood samples were obtained by cardiac puncture for the measurements of plasma compound, K^+ and creatinine concentrations. Plasma K^+ levels were determined on a Radiometer ABL 700 blood gas analyser (Radiometer, Copnchagen DK). Plasma creatinine levels were determined by LC-MS/MS. Urine creatinine was measured by the Jaffe method (Creatinine FS, REF117119910021, DiaSys). Kidneys were perfused through the heart with cold PBS and then excised. One piece of renal cortex was fixed in 10% neutralized formalin for histological staining.
Formalin-fixed renal cortex tissues were subsequently embedded in paraffin. Three-micrometer sections were cut from the tissue blocks and stained with periodic acid-Schiff (PAS). The PAS-positive glomerular matrix was quantitated in a blinded fashion by a computer-assisted method as previously described [43]. At least 20 glomeruli from each individual mouse were assessed. The PAS-positive material area in the mesangium was normalized by that of the total glomerular tuft where the percentage of mesangial matrix occupying each glomerulus area was rated. Glomerular sclerosis index was graded from 0 to 4+ as follows: 0 represents no lesion, 1+ represents sclerosis of <25% of the glomerulus, while 2 =, 3+ and 4+ represent sclerosis of 25% to 50%, >50% to 75%, and >75% of the glomerulus, respectively. A whole kidney average sclerosis index was obtained by averaging scores from all glomeruli on one section.

| Compound | co-activator peptide binding [1] | FE K+ end ([2]; after 4 weeks treatment) | FE Na+ end ([2]; after 4 weeks treatment) | UAE w22 ([2]; after 4 weeks treatment) | p-K+ end ([2]; after 4 weeks treatment) | u-K+ end ([2]; after 4 weeks treatment) | u-Na+ end ([2]; after 4 weeks treatment) | u-Na+/K+ end ([2]; after 4 weeks treatment) | UAE w18 ([2]; before treatment, 18 weeks of age) | increased injury (glomerular ECM scoring) from week 18 to 22 ([2]; four week treatment) |
| --- | --- | --- | --- | --- | --- | --- | --- | --- | --- | --- |
| C[C@]12CCC(=O)C=C1CC[C@@H]1[C@@H]2[C@@H](O)C[C@]2(C=O)[C@@H](C(=O)CO)CC[C@@H]12 [aldosterone] | strongest peptide binding |  |  |  |  |  |  |  |  |  |
| CCOC(=O)[C@H](CCc1ccccc1)N[C@@H](C)C(=O)N1CCC[C@H]1C(=O)O [enalapril] |  | 15.6 ± 0.4% | 0.18 ± 0.01% | 583 ± 97 µg 24h-1 | 4.4 ± 0.1 mM | 0.90 ± 0.07 mmol/24h | 0.36 ± 0.03 mmol/24h | 0.40 ± 0.01 | 958 ± 184 µg 24h-1 | prevented |
